Values of other authors as cited in patent US7795231B2, “Concentrated aqueous azalide formulations” (Insite Vision Incorporated, priority 2007, dated 2010).
Counter-ions that a name gives are not always drawn.

Structure (SMILES): CC[C@H]1OC(=O)[C@H](C)[C@@H](O[C@H]2C[C@@](C)(OC)[C@@H](O)[C@H](C)O2)[C@H](C)[C@@H](O[C@@H]2O[C@H](C)C[C@H](N(C)C)[C@H]2O)[C@](C)(O)C[C@@H](C)CN(C)[C@H](C)[C@@H](O)[C@]1(C)O [azithromycin dihydrochloride]
- water solubility (in words): good water solubility
